Activity calls are given as the source filed them. No cut-off for these calls is given here.
Legend:
[1] = system: CAL-27; experiment: Antiproliferative activity against human CAL-27 cells assessed as inhibition rate at 0.1 uM incubated for 72 hrs by MTT assay relative to control; assay type: functional
[2] = Antiproliferative activity against human HN-6 cells assessed as inhibition rate at 0.1 uM incubated for 72 hrs by MTT assay relative to control; assay type: functional
[3] = Antiproliferative activity against human WSU HN-30 cells assessed as inhibition rate at 0.1 uM incubated for 72 hrs by MTT assay relative to control; assay type: functional; conditions: WSU-HN30
[4] = system: SCC-9; experiment: Antiproliferative activity against human SCC-9 cells assessed as inhibition rate at 0.1 uM incubated for 72 hrs by MTT assay relative to control; assay type: functional
[5] = system: SCC-25; experiment: Antiproliferative activity against human SCC-25 cells assessed as inhibition rate at 0.1 uM incubated for 72 hrs by MTT assay relative to control; assay type: functional
[6] = Antiproliferative activity against human L02 cells assessed as inhibition rate at 0.1 uM incubated for 72 hrs by MTT assay relative to control; assay type: toxicity, cell-based
[7] = system: CAL-27; experiment: Cytotoxicity against human CAL-27 cells incubated for 72 hrs by MTT assay; assay type: functional, cell-based; conditions: CAL-27, 72 h
[8] = Cytotoxicity against human HN-6 cells incubated for 72 hrs by MTT assay; assay type: functional, cell-based; conditions: HN-6, 72 h
[9] = Cytotoxicity against human […] incubated for 72 hrs by MTT assay; assay type: functional, cell-based; conditions: WSU-HN30, 72 h
[10] = system: SCC-9; experiment: Cytotoxicity against human SCC-9 cells incubated for 72 hrs by MTT assay; assay type: functional, cell-based; conditions: SCC-9, 72 h
[11] = system: SCC-25; experiment: Cytotoxicity against human SCC-25 cells incubated for 72 hrs by MTT assay; assay type: functional, cell-based; conditions: SCC-25, 72 h
[12] = Cytotoxicity against human L02 cells incubated for 72 hrs by MTT assay; assay type: toxicity, cell-based
[13] = system: CAL-27; experiment: Antiproliferative activity against human CAL-27 cells assessed as inhibition of cell communities at 10 uM treated for 11 days by plate clone formation assay; assay type: functional, cell-based; conditions: time 11.0 day

Compound | inhibition at 0.1 µM [1] [%] | inhibition at 0.1 µM [2] [%] | inhibition at 0.1 µM [3] [%] | inhibition at 0.1 µM [4] [%] | inhibition at 0.1 µM [5] [%] | inhibition at 72 h, 0.1 µM [6] [%] | IC50 [7] [nM] | IC50 [8] [nM] | IC50 [9] [nM] | IC50 [10] [nM] | IC50 [11] [nM] | IC50 at 72 h [12] [nM] | Activity [13]
COc1cc2c(O[C@@H]3O[C@@H]4CO[C@@H](c5ccco5)O[C@H]4[C@H](O)[C@H]3O)c3c(c(-c4ccc5c(c4)OCO5)c2cc1OC)C(=O)OC3 | 50.9 | 58.7 | 45.7 | 52.9 | 54.6 | 5.23 | 5.47 | 8.58 | 243 | 4.97 | 4.31 | > 10000 | Active
COc1cc2c(OCCOCCOCCN)c3c(c(-c4ccc5c(c4)OCO5)c2cc1OC)C(=O)OC3 | 67.2 | 29.5 | 25.2 | 31.5 | 51.1 | 18.2 | 40.6 | 94.6 | 123 | 130 | 92.6 | 7870 | –

Reference: ChEMBL document CHEMBL6153048, “Synthesis and pharmacological evaluation of natural product diphyllin derivatives against head and neck squamous cell carcinoma” (Eur J Med Chem, 2025)
